These results are taken from patent publication US7282507B2, “Indole derivatives as selective androgen receptor modulators (SARMS)” (Janssen Pharmaceutica N.V., priority 2004, dated 2007).

The inhibition is the drop in the measured response relative to a control, in per cent. A lower inhibition goes with little suppression. Broadly, the IC50 is the concentration at which inhibition is half-maximal.

Each structure is given as a SMILES string. Values joined by “and” are separate entries in the source; they are usually repeats but may differ in a detail not shown here. Equal values may be shown once. Read-outs that look alike come from different tables or passages of the source.

Assay [1] concerns testosterone-enhanced ventral prostate and seminal vesicle weights. Put plainly: Ventral Prostate and Seminal Vesicle Weight in vivo Assay. Also: key: 'active' if the non weight adjusted prostate weight was ≦40 mg or the % Inhibition prostate weight, body weight adjusted was ≧40% @ 2 mg/day dosage; ID50's, if determined, of ≦15 mg/day also indicated an 'active' compound; listed herein as 'inactive' as they did not meet the specified criteria defined above. The arrangement: species or system rat. The conditions noted are these: immature castrated male Sprague Dawley rats, once daily for five days, usually orally 40 mg/kg, with testosterone propionate 2 mg/kg s.c. Put shortly:
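Immature castrated male Sprague Dawley rats (~50 g) were dosed once daily for five days with compound, usually orally at 40 mg/kg in cyclodextrin or methylcellulose vehicle. Testosterone propionate was co-dosed subcutaneously at 2 mg/kg. On day six, ventral prostate and seminal vesicle wet weights were measured; activity was judged on prostate weight or body-weight-adjusted % inhibition.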

Assay [2] concerns the target T1, androgen receptor (AdEasy+rAR, COS-7 cells) (Rattus norvegicus, UniProt P15207).
T1 construct: expressed in transfected cells; host or cells: COS-7 cells transduced with adenovirus AdEasy+rAR
T1 sequence (P15207 1-902): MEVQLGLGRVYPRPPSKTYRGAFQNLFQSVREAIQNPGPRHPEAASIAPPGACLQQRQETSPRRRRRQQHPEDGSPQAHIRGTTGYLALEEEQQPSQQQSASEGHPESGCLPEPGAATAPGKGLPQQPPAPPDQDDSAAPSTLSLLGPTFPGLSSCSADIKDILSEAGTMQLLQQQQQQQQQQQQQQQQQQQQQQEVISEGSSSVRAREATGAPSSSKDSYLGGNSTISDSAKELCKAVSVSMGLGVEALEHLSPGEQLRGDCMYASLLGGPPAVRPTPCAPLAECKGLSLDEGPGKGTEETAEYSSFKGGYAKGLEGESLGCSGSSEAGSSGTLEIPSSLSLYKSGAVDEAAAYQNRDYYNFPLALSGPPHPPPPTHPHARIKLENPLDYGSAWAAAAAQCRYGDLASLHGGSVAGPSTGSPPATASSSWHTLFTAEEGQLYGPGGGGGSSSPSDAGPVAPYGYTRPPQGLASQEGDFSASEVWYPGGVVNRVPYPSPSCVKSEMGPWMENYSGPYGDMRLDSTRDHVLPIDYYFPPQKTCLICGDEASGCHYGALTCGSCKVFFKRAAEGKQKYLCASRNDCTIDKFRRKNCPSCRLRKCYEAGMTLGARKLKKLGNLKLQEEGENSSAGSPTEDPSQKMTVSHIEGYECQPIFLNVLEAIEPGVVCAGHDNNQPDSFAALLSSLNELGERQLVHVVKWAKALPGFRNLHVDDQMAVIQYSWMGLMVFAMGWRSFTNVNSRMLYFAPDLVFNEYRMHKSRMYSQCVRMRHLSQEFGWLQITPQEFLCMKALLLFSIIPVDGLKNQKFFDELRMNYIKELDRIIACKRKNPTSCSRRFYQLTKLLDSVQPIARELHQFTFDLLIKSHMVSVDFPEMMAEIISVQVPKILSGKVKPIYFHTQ
Kind of assay: COS-7 Whole-Cell Androgen Receptor Binding Assay, Adenovirus Transduction. The conditions noted are these: for inhibition at 3 µM / % Inhibition, COS Binding: concentration of 3000 nM. Put shortly:
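COS-7 cells in phenol red-free DMEM/F12 with 10% charcoal-treated FBS were transduced with AdEasy+rAR adenovirus (moi 1:50 per well), exposed to test compound in duplicate and incubated for 48 h at 37° C. Cells were then lysed in 0.5% Triton X-100 and bound radioactivity counted by scintillation.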

[3] abbreviates: read-out: IC50 (nM), COS Binding.

As to `CC(O)(CSC1CCCC1)c1cc2cc([N+](=O)[O-])c(C(F)(F)F)cc2[nH]1` (centres unmarked) [Compound 173], in assay [1], the “active / inactive: inhibition of testosterone-enhanced prostate weight” value (from here on “active / inactive: inhibition”) is “inactive”. For the same compound, at 3 µM the inhibition in assay [2] was 17%. Also, the IC50 in assay [2] (setting [3]) was over 3000 nM.
In the same order, the values of `CC(O)(CS(=O)(=O)c1ccc(N)cc1)c1cc2cc(Cl)c(C(F)(F)F)cc2[nH]1` (centres unmarked) [Compound 118] are “inactive”, 62% and over 1500 nM.
In the same order, the values of `CCSCC(C)(O)c1cc2cc([N+](=O)[O-])c(C(F)(F)F)cc2[nH]1` (racemic) [Compound 142] are “active”, 90% and 220 nM.
Consider `CCSCC(C)(O)c1cc2cc([N+](=O)[O-])c(C(F)(F)F)cc2n1S(C)(=O)=O` (centres unmarked) [Compound 141], for which the “active / inactive: inhibition” value in assay [1] was “inactive”. The inhibition at 3 µM in assay [2] is 42%. In addition, in assay [2] (setting [3]), the concentration for half-maximal inhibition (IC50) is over 3000 nM.
As to `COc1ccc(SCC(C)(O)c2cc3cc(Cl)c(C(F)(F)F)cc3n2S(C)(=O)=O)cc1` (racemic) [Compound 130], the “% Inhibition, COS Binding” value in assay [2] was −8%.
Regarding `CCSCC(C)(O)c1cc2cc([N+](=O)[O-])c(C(F)(F)F)cc2[nH]1` (single isomer, unassigned) [Compound 150], the “% Inhibition, COS Binding” value in assay [2] (3 µM) is 81% and 74%. For the same compound, the IC50 in assay [2] (setting [3]) was 165 nM and 627 nM.
Regarding `CSCC(C)(O)c1cc2cc([N+](=O)[O-])c(C(F)(F)F)cc2[nH]1` (single isomer, unassigned) [Compound 145], in assay [2], the inhibition at 3 µM was 84.7%. The IC50 in assay [2] (setting [3]) was 36.7 nM.
In the same order, the values of `CC(O)(CSc1ccc(O)cc1)c1cc2cc(Cl)c(C(F)(F)F)cc2[nH]1` (centres unmarked) [Compound 120] are 86% and 205 nM.
For `CC(C)SCC(C)(O)c1cc2cc([N+](=O)[O-])c(C(F)(F)F)cc2[nH]1` (centres unmarked) [Compound 164], the “active / inactive: inhibition” value in assay [1] was “inactive”. 3 µM produced 68% inhibition in assay [2]. Besides, the half-maximal inhibitory concentration (IC50) in assay [2] (setting [3]) was over 1000 nM.
The matching figures for `CC(O)(CS(C)(=O)=O)c1cc2cc(Cl)c(C(F)(F)F)cc2[nH]1` (centres unmarked) [Compound 138]: “inactive”, 78% and 317 nM.
With `CCSCC(O)c1cc2cc([N+](=O)[O-])c(C(F)(F)F)cc2[nH]1` (centres unmarked) [Compound 158], the “active / inactive: inhibition” value in assay [1] is “inactive”. Moreover, the inhibition at 3 µM in assay [2] was determined as 62%. Also, the “% Inhibition, COS Binding” value in assay [2] (3 µM) came out at 56%. The concentration for half-maximal inhibition (IC50) in assay [2] (setting [3]) was 160 nM and 550 nM.
On to `CC[S+]([O-])C[C@](C)(O)c1cc2cc([N+](=O)[O-])c(C(F)(F)F)cc2[nH]1` (stereo in doubt) [Compound 155, 1-Ethanesulfinyl-2-(5-nitro-6-trifluoromethyl-1H-indol-2-yl)-propan-2-ol], for which the “active / inactive: inhibition” value in assay [1] was “inactive”. The compound further came in with an inhibition at 3 µM in assay [2] of 35%.
For the compound `CCCSCC(C)(O)c1cc2cc([N+](=O)[O-])c(C(F)(F)F)cc2[nH]1` (centres unmarked) [Compound 168], the “active / inactive: inhibition” value in assay [1] is “inactive”. Moreover, the inhibition at 3 µM in assay [2] turned out to be 60%. Further, the concentration for half-maximal inhibition (IC50) in assay [2] (setting [3]) is over 3000 nM.
For the compound `CC(O)(CS(C)(=O)=O)c1cc2cc([N+](=O)[O-])c(C(F)(F)F)cc2[nH]1` (centres unmarked) [Compound 140], in assay [1], the “active / inactive: inhibition” value was “active”. In addition, the “% Inhibition, COS Binding” value in assay [2] (3 µM) was determined as 51.5%. For the same compound, in assay [2] (setting [3]), the half-maximal inhibitory concentration (IC50) was over 1500 nM.
Regarding `CCS(=O)(=O)CC(C)(O)c1cc2cc([N+](=O)[O-])c(C(F)(F)F)cc2[nH]1` (centres unmarked) [Compound 143], the “active / inactive: inhibition” value in assay [1] was “active”. In assay [2], this compound had an inhibition at 3 µM of 68%. The IC50 in assay [2] (setting [3]) was over 1500 nM.
As to `CCS(=O)(=O)C[C@](C)(O)c1cc2cc([N+](=O)[O-])c(C(F)(F)F)cc2[nH]1` [Compound 156, 1-Ethanesulfonyl-2-(5-nitro-6-trifluoromethyl-1H-indol-2-yl)-propan-2-ol], the “active / inactive: inhibition” value in assay [1] was “inactive”. Besides, in assay [2] (IC50 (nM), COS Binding), the IC50 was over 1000 nM. Moreover, the inhibition at 3 µM in assay [2] was determined as 42%. In addition, in assay [2] (3 µM), the “% Inhibition, COS Binding” value stood at 52%.
Regarding `CSCC(C)(O)c1cc2cc([N+](=O)[O-])c(C(F)(F)F)cc2[nH]1` (single isomer, unassigned) [Compound 144], the half-maximal inhibitory concentration (IC50) in assay [2] (setting [3]) worked out at 375 nM.
As for `COc1ccc(S(=O)(=O)CC(C)(O)c2cc3cc(Cl)c(C(F)(F)F)cc3[nH]2)cc1` (racemic) [Compound 129], the “active / inactive: inhibition” value in assay [1] was “inactive”. For the same compound, in assay [2], the “% Inhibition, COS Binding” value is 10%.
For the compound `CSCC(C)(O)c1cc2cc(C#N)c(C(F)(F)F)cc2[nH]1` (centres unmarked) [Compound 136], the “active / inactive: inhibition” value in assay [1] is on record as “active”. Also, in assay [2], testing at 3 µM gave an inhibition of 4.8%. Further, the half-inhibitory concentration (IC50) in assay [2] (setting [3]) amounted to 527 nM.
For `CC(O)(CS(C)(=O)=O)c1cc2cc([N+](=O)[O-])c(C(F)(F)F)cc2[nH]1` (centres unmarked) [Compound 147], in assay [2] (3 µM), the “% Inhibition, COS Binding” value is on record as 6.1%. Further, the IC50 in assay [2] (setting [3]) is over 3000 nM.
Take `CC(O)(C[S+]([O-])Cc1ccccc1)c1cc2cc([N+](=O)[O-])c(C(F)(F)F)cc2[nH]1` (mixture of isomers) [Compound 161]: the “active / inactive: inhibition” value in assay [1] is “inactive”. Moreover, the “% Inhibition, COS Binding” value in assay [2] worked out at 20%.
As to `CSCC(C)(O)c1cc2cc(Cl)c(C(F)(F)F)cc2[nH]1` (centres unmarked) [Compound 135], in assay [1], the “active / inactive: inhibition” value is “inactive”. The compound also came in with an inhibition at 3 µM in assay [2] of 98%. The IC50 in assay [2] (setting [3]) is 320 nM.
The matching figures for `CCSCC(O)(CC)c1cc2cc([N+](=O)[O-])c(C(F)(F)F)cc2[nH]1` (centres unmarked) [Compound 169]: “active”, 90% and 48 nM.
As for `CC(O)(CS(=O)(=O)c1ccc(O)cc1)c1cc2cc(Cl)c(C(F)(F)F)cc2[nH]1` (centres unmarked) [Compound 121], at 3 µM the inhibition in assay [2] was 72%. The IC50 in assay [2] (setting [3]) was over 1800 nM.
The matching figures for `CC(O)(CSc1ccc([N+](=O)[O-])cc1)c1cc2cc(Cl)c(C(F)(F)F)cc2[nH]1` (centres unmarked) [Compound 122]: 66% and over 1600 nM.
Turning to `CC(O)(CCS(C)(=O)=O)c1cc2cc([N+](=O)[O-])c(C(F)(F)F)cc2[nH]1` (centres unmarked) [Compound 49], in assay [1], the “active / inactive: inhibition” value is “inactive”. Also, in assay [2], the inhibition at 3 µM came out at 30%. Also, the IC50 in assay [2] (setting [3]) was over 3000 nM.
As to `CC(O)(CSCc1ccccc1)c1cc2cc([N+](=O)[O-])c(C(F)(F)F)cc2[nH]1` (centres unmarked) [Compound 160], the “active / inactive: inhibition” value in assay [1] is “inactive”. For the same compound, in assay [2], the inhibition at 3 µM was determined as 84%. The 50% inhibitory concentration (IC50) in assay [2] (setting [3]) came out at 250 nM.
Take `CC(O)(CSCC(F)(F)F)c1cc2cc([N+](=O)[O-])c(C(F)(F)F)cc2[nH]1` (centres unmarked) [Compound 171]: the “active / inactive: inhibition” value in assay [1] was “active”. The compound also gave an inhibition at 3 µM in assay [2] of 92%. Further, in assay [2] (3 µM), the “% Inhibition, COS Binding” value was 94%. Further, in assay [2] (setting [3]), the IC50 was determined as 145 nM.
Take `CC(O)(CS(C)(=O)=O)c1cc2cc([N+](=O)[O-])c(C(F)(F)F)cc2[nH]1` (centres unmarked) [Compound 148]: in assay [2] (3 µM), the “% Inhibition, COS Binding” value was determined as 32%. The IC50 in assay [2] (setting [3]) is over 2400 nM.
For the compound `CSCCC(C)(O)c1cc2cc([N+](=O)[O-])c(C(F)(F)F)cc2[nH]1` (centres unmarked) [Compound 47], in assay [1], the “active / inactive: inhibition” value is “inactive”. The compound also had an inhibition at 3 µM in assay [2] of 78%. Moreover, the IC50 in assay [2] (setting [3]) is over 1000 nM.
In the case of `CCS(=O)(=O)CC(C)(O)c1cc2cc([N+](=O)[O-])c(C(F)(F)F)cc2[nH]1` (centres unmarked) [Compound 151], in assay [2] (3 µM), the “% Inhibition, COS Binding” value worked out at 55%. For the same compound, in assay [2] (setting [3]), the IC50 is > 970 nM and 2190 nM.
In assay [2], `CCSCC(C)(O)c1cc2cc([N+](=O)[O-])c(C(F)(F)F)cc2[nH]1` (single isomer, unassigned) [Compound 149] returned an inhibition at 3 µM of 63%. In addition, the IC50 in assay [2] (setting [3]) is 780 nM and > 790 nM.
